# Values of other authors, collected in US20250064896A1, “METHODS, COMPOSITIONS AND USES FOR TREATING CANCER BY PROVIDING MEDICATIONS THAT INDUCE TARGETED TUMOR CELL MITOSIS BEFORE PROVIDING CHEMOTHERAPY OR RADIATION AND KITS THEREFOR” (MAISON AMORI OQVPO LLC, priority 2022, published 2025).
# Like-named read-outs stand apart in the source and are kept apart here.
# Key:
# [1] = test system: metastatic hormone sensitive prostate cancer (MHSPC); conditions: for median actuarial freedom from Castrate Resistant Prostate Cancer (CRPC): p=0.04; for overall survival: p=0.2
# testosterone levels [2] = conditions: week 2 from initiation of leuprolide; injections once every 3 months; advanced prostate cancer
# testosterone levels [3] = test system: testosterone levels
# [4] = test system: serum concentrations of LH and testosterone
# [5] = in vivo
# [6] = test system: prostate cancer (salvage setting); conditions: goserelin provided on the first day of radiation
# [7] = test system: locally advanced prostate cancer
# [8] = test system: locally advanced prostate cancer; conditions: goserelin 3.6 mg every 4 weeks and flutamide 250 mg tid, 2 months before and concurrent with RT
# [9] = test system: locally advanced prostate cancer; conditions: for overall survival at 5 years: P=0.73
# [10] = test system: metastatic adenocarcinoma of the prostate
# [11] = in vivo; remark: listed apart in the source
# [12] = patients randomized to bicalutamide versus placebo
# [13] = arm I: irradiation plus goserelin started in the last week of radiation
structure (smiles),measurement,setting,value
CC(=O)O[C@@]12CO[C@@H]1C[C@H](O)[C@@]1(C)C(=O)[C@H](O)C3=C(C)[C@@H](OC(=O)[C@H](O)[C@@H](NC(=O)OC(C)(C)C)c4ccccc4)C[C@@](O)([C@@H](OC(=O)c4ccccc4)[C@H]21)C3(C)C [docetaxel],overall survival versus LHRH therapy alone,"[1]; docetaxel given at the beginning of LHRH therapy, MHSPC",significantly longer
same,median actuarial freedom from Castrate Resistant Prostate Cancer (CRPC),[1]; docetaxel started 1-6 days from LHRH initiation,51 months
same,overall survival,[1]; docetaxel started 1-6 days from initiation of LHRH agonist,72 months
same,median actuarial freedom from Castrate Resistant Prostate Cancer (CRPC),[1]; docetaxel started >14 days from LHRH initiation,18 months
same,overall survival,[1]; docetaxel started >14 days from initiation of LHRH agonist,57 months
CCNC(=O)[C@@H]1CCCN1C(=O)[C@H](CCCNC(=N)N)NC(=O)[C@H](CC(C)C)NC(=O)[C@@H](CC(C)C)NC(=O)[C@H](Cc1ccc(O)cc1)NC(=O)[C@H](CO)NC(=O)[C@H](Cc1c[nH]c2ccccc12)NC(=O)[C@H](Cc1c[nH]cn1)NC(=O)[C@@H]1CCC(=O)N1 [leuprolide],testosterone levels higher compared to baseline,testosterone levels [2],about 50%
same,median testosterone levels remained above castrate levels (0.5 ng/ml) until,testosterone levels [3]; after initiation of leuprolide,21 days
same,median testosterone levels increase from baseline,"testosterone levels [3]; by day 3 after initiation of monthly leuprolide, P<0.001",65%
same,median testosterone level,testosterone levels [3]; day 3 after initiation of leuprolide,6.30 ng/mL
same,duration of elevation of testosterone levels,[4]; after LHRH analogue application,7 days
same,duration of increase in relative LH values,[4]; after LHRH analogue injection,7 days
same,maximum testosterone level,[4]; day 2 after LHRH analogue application,145±13%
same,maximum relative LH value,"[4]; day 2 after LHRH analogue injection, means±standard error, 16 patients with advanced prostatic cancer",345±108%
same,"leuprolide blood levels, intranasal versus intravenous route",[5],much lower
CC(C)C[C@H](NC(=O)[C@@H](COC(C)(C)C)NC(=O)[C@H](Cc1ccc(O)cc1)NC(=O)[C@H](CO)NC(=O)[C@H](Cc1c[nH]c2ccccc12)NC(=O)[C@H](Cc1cnc[nH]1)NC(=O)[C@@H]1CCC(=O)N1)C(=O)N[C@@H](CCCNC(=N)N)C(=O)N1CCC[C@H]1C(=O)NNC(N)=O [goserelin],"survival, ADT in the salvage setting",[6],survival benefit
same,10-year overall survival,"[7]; combined treatment, radiotherapy alone 39.8%, p=0.0004",58.1%
same,"survival, hormonal therapy added to radiation compared to radiation alone",[7]; external irradiation plus goserelin,survival benefit
same,five-year overall survival,"[7]; irradiation plus goserelin from first day for 3 years, antiandrogen for 1 month, radiotherapy alone 62%, p=0.0002",78%
same,"survival, combined ADT with RT versus RT alone",[8],no significant difference
same,10-year absolute survival rate,"prostate cancer; arm 1 versus control arm 39%, p=0.002",49%
same,5-year absolute survival rate,prostate cancer; [13],72%
same,9-year absolute survival rate,prostate cancer; [13],62%
same,overall survival at 5 years,[9]; 24 months of goserelin after 4 months of goserelin and flutamide with RT,80.0%
same,overall survival between the two treatment arms,[9]; 24 months of goserelin versus no further treatment,not significantly different
same,overall survival at 5 years,[9]; no further treatment after 4 months of goserelin and flutamide with RT,78.5%
C[C@]12CC[C@H]3[C@@H](CCC4=CC(=O)CC[C@@]43C)[C@@H]1CC[C@@H]2O [testosterone],patients with unfavorable subjective and/or objective responses,[10]; 52 patients treated with exogenous testosterone daily,87%
same,"serious morbidity or mortality, seemingly due to the testosterone administration",[10]; eight cases of 52 patients,15%
same,half-life,[11],170 h
CC(O)(CS(=O)(=O)c1ccc(F)cc1)C(=O)Nc1ccc(C#N)c(C(F)(F)F)c1 (centres unmarked) [bicalutamide],erectile dysfunction compared to placebo,[12],non-statistically significant difference
